# Experimental data: EP0742220A2, “Esters of boric acid and their use as perfume” (HAARMANN & REIMER GMBH, priority 1995, dated 1996)
# Columns and labels:
# Pseudomonas aeruginosa = assay: microtitre plate test on sterile agar, growth inhibition of gram-negative bacteria; assay type: cell-based; details: gramnegativen Bakterien (z.B. Pseudomonas aeruginosa); Inkubationszeit 3 Tage, Temperatur 37°C
# Method: (§1) Sowohl gegenüber gramnegativen Bakterien (z.B. Pseudomonas aeruginosa) als auch grampositiven Bakterien (z.B. Staphylococcus aureus) zeigen die beispielhaft genannten Borate eine hervorragende wachstumshemmende Wirkung, was experimentell durch einen sogenannten Mikrotiterplattentest auf sterilem Agar (Inkubationszeit 3 Tage, Temperatur 37°C) dokumentiert werden konnte.
# Staphylococcus aureus = assay: microtitre plate test on sterile agar, growth inhibition of gram-positive bacteria; assay type: cell-based; details: grampositiven Bakterien (z.B. Staphylococcus aureus); Inkubationszeit 3 Tage, Temperatur 37°C
# Method: as §1
Compound,wachstumshemmende Wirkung (Pseudomonas aeruginosa),wachstumshemmende Wirkung (Staphylococcus aureus)
CC/C=C\CCOB(OCC/C=C\CC)OCC/C=C\CC [tris-(cis)-3-Hexenylborat],antimikrobiellen Eigenschaften,antimikrobiellen Eigenschaften
CC(C)=CCC/C(C)=C/COB(OC/C=C(\C)CCC=C(C)C)OC/C=C(\C)CCC=C(C)C [tris-Geranylborat],antimikrobiellen Eigenschaften,antimikrobiellen Eigenschaften
CC(CC=O)CCCC(C)(C)OB(OC(C)(C)CCCC(C)CC=O)OC(C)(C)CCCC(C)CC=O (centres unmarked) [tris-Hydroxycitronellalborat],antimikrobiellen Eigenschaften,antimikrobiellen Eigenschaften
C=CC(C)(CCC=C(C)C)OB(OC(C)(C=C)CCC=C(C)C)OC(C)(C=C)CCC=C(C)C (centres unmarked) [tris-Linalylborat],antimikrobiellen Eigenschaften,antimikrobiellen Eigenschaften
CC(C)=CCC/C(C)=C\COB(OC/C=C(/C)CCC=C(C)C)OC/C=C(/C)CCC=C(C)C [tris-Nerylborat],antimikrobiellen Eigenschaften,antimikrobiellen Eigenschaften
c1ccc(CCOB(OCCc2ccccc2)OCCc2ccccc2)cc1 [tris-Phenylethylborat],antimikrobiellen Eigenschaften,antimikrobiellen Eigenschaften
C=CCCCCCCCCCOB(OCCCCCCCCCC=C)OCCCCCCCCCC=C [tris-Undecenylborat],antimikrobiellen Eigenschaften,antimikrobiellen Eigenschaften
